Test: xn = mol fraction of the nth substance listed

CCCCCCCO + CCCCCCC
viscosity [mPa·s], 101.33 kPa
Details | 298.15 K | 303.15 K | 308.15 K | 313.15 K
x1 = 0.0373 | – | 0.402 | – | 0.3519
x1 = 0.0508 | 0.4239 | – | 0.3784 | –
x1 = 0.1004 | 0.4638 | – | 0.4111 | –
x1 = 0.104 | – | 0.469 | – | 0.4152
x1 = 0.1707 | – | 0.543 | – | 0.4918
x1 = 0.2012 | 0.5765 | – | 0.5039 | –
x1 = 0.2845 | – | 0.703 | – | 0.6087
x1 = 0.3013 | 0.7282 | – | 0.6241 | –
x1 = 0.4001 | 0.946 | – | 0.7914 | –
x1 = 0.4114 | – | 0.901 | – | 0.7971
x1 = 0.4992 | 1.243 | – | 1.023 | –
x1 = 0.5113 | – | 1.21 | – | 0.9558
x1 = 0.5981 | 1.702 | – | 1.346 | –
x1 = 0.62 | – | 1.671 | – | 1.318
x1 = 0.699 | 2.261 | – | 1.821 | –
x1 = 0.7301 | – | 2.236 | – | 1.681
x1 = 0.8089 | – | 2.801 | – | 2.082
x1 = 0.85 | 3.616 | – | 2.806 | –
x1 = 0.9029 | – | 3.742 | – | 2.728
x1 = 0.9456 | 4.749 | – | 3.608 | –
x1 = 0.9699 | – | 4.553 | – | 3.322

CCCCCCCO + CC#N
viscosity [mPa·s], 101 kPa
Details | 298.15 K | 303.15 K | 308.15 K
x2 = 0.0959 | 3.772 | 3.561 | 2.881
x2 = 0.2368 | 2.953 | 2.592 | 2.277
x2 = 0.3327 | 2.267 | 2.022 | 1.808
x2 = 0.4126 | 1.836 | 1.634 | 1.457
x2 = 0.5459 | 1.278 | 1.149 | 1.047
x2 = 0.6546 | 0.943 | 0.857 | 0.786
x2 = 0.741 | 0.716 | 0.658 | 0.611
x2 = 0.8119 | 0.58 | 0.547 | 0.51
x2 = 0.8706 | 0.487 | 0.463 | 0.433
x2 = 0.9199 | 0.423 | 0.402 | 0.382
x2 = 0.9633 | 0.384 | 0.366 | 0.35

CC(=O)CC(C)(C)O + OCc1ccccc1
298.15 K, 101 kPa
Details | viscosity [mPa·s]
x2 = 0.0518 | 2.886
x2 = 0.1087 | 3.021
x2 = 0.1705 | 3.199
x2 = 0.2406 | 3.41
x2 = 0.3325 | 3.67
x2 = 0.3445 | 3.703
x2 = 0.4344 | 3.968
x2 = 0.5378 | 4.295
x2 = 0.6345 | 4.596
x2 = 0.7171 | 4.831
x2 = 0.7554 | 4.935
x2 = 0.8122 | 5.096
x2 = 0.878 | 5.303
x2 = 0.9123 | 5.42
x2 = 0.9146 | 5.43

CCCCC + CCCCCCC
298.15 K, 101.33 kPa
Details | viscosity [mPa·s]
x1 = 0.1046 | 0.3691
x1 = 0.2024 | 0.3579
x1 = 0.3087 | 0.3325
x1 = 0.4077 | 0.3173
x1 = 0.4979 | 0.3004
x1 = 0.5999 | 0.2848
x1 = 0.6624 | 0.2762
x1 = 0.7972 | 0.254
x1 = 0.8929 | 0.242

CCOC(=O)C(C)O (stereo not given) + Cc1ccccc1
101 kPa
Details | viscosity [mPa·s]
298.15 K, x1 = 0.7999 | 1.695
303.15 K, x1 = 0.3 | 0.7345
303.15 K, x1 = 0.7 | 1.295
313.15 K, x1 = 0.4 | 0.7225

OC1CCCCC1 + CS(C)=O
303.15 K, 101 kPa
Details | viscosity [mPa·s]
x2 = 0.1009 | 20.83
x2 = 0.1821 | 12.4
x2 = 0.2727 | 7.835
x2 = 0.373 | 5.386
x2 = 0.4703 | 4.069
x2 = 0.5678 | 3.265
x2 = 0.6724 | 2.732
x2 = 0.791 | 2.203
x2 = 0.8922 | 2.015

O=C(O)C=Cc1ccccc1 + CCCCO
viscosity [mPa·s]
Details | x1 = 0.0728 | x1 = 0.0959 | x1 = 0.114
308.15 K, 101.33 kPa | 2.48 | – | –
313.15 K, 101.33 kPa | 2.19 | – | –
318.15 K, 101 kPa | 1.932 | 2.073 | 2.18
318.15 K, 101.33 kPa | 1.932 | 2.073 | –
323.15 K, 101.33 kPa | 1.712 | 1.838 | –

OC1CCCCC1 + Cc1ccccc1Cl
303.15 K, 101 kPa
Details | viscosity [mPa·s]
x1 = 0.1104 | 4.861
x1 = 0.2183 | 8.854
x1 = 0.3237 | 12.93
x1 = 0.4268 | 17.06
x1 = 0.5276 | 21.22
x1 = 0.6262 | 25.36
x1 = 0.7227 | 29.4
x1 = 0.8171 | 33.34
x1 = 0.9095 | 37.22

CCCCC + CCCCCC
298.15 K, 101.33 kPa
Details | viscosity [mPa·s]
x1 = 0.1045 | 0.2898
x1 = 0.2098 | 0.2802
x1 = 0.3107 | 0.2724
x1 = 0.4113 | 0.2641
x1 = 0.5105 | 0.2574
x1 = 0.6025 | 0.2497
x1 = 0.7041 | 0.2432
x1 = 0.7966 | 0.2364
x1 = 0.8997 | 0.228

CCCCCCCCCCCCCC[P+](CCCCCC)(CCCCCC)CCCCCC.c1ccc2[n-]nnc2c1 + O=C=O
Details | viscosity [mPa·s]
298.15 K, 100 kPa, x2 = 0.19 | 443

From the CheMixHub viscosity set
